ChEMBL document CHEMBL3804825, “Synthesis, structure-activity relationships, and biological evaluation of a series of benzamides as potential multireceptor antipsychotics” (Bioorg Med Chem Lett, 2016)
Calls of active or inactive are those of the source. The calls are words filed in the database; no cut-off is given here.

Columns and labels:
D(2) dopamine receptor = D(2) dopamine receptor (Homo sapiens, UniProt P14416); assay: Antagonistic activity at human dopamine D2 receptor measured after 60 mins by Ultra Lance cAMP assay; assay type: functional
[1] = biological target: T1, 5-hydroxytryptamine receptor 1A (Homo sapiens, UniProt P08908); assay: Agonistic activity at human 5-HT1A receptor measured after 60 mins by Ultra Lance cAMP assay; assay type: functional
T1 sequence (P08908 whole entry): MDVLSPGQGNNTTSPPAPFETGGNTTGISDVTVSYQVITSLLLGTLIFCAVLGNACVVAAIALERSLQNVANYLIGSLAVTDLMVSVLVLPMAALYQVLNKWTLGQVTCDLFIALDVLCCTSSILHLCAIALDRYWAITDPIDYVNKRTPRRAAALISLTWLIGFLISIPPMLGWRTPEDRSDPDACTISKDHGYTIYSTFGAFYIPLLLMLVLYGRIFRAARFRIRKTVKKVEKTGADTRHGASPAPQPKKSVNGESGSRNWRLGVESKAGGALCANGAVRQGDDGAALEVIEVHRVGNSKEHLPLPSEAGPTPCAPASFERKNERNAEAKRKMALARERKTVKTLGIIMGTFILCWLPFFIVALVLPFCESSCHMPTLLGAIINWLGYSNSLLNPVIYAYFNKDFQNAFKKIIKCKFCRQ

[2] = biological target: 5-hydroxytryptamine receptor 2A (Homo sapiens, UniProt P28223); assay: Antagonistic activity at human 5-HT2A receptor assessed as calcium flux after 10 mins by FLIPR assay; assay type: functional
Mus musculus [3] = assay: Toxicity in ig dosed mouse assessed as induction of catalepsy by horizontal bar method; assay type: organism-based; conditions: in vivo, po
Mus musculus [4] = assay: Antipsychotic activity in mouse assessed as inhibition of PCP-induced hyperactivity at 10 mg/kg, ip administered 45 mins prior testing measured after 60 mins; assay type: functional, organism-based
Mus musculus [5] = assay: Toxicity in mouse assessed as induction of sedation at 10 mg/kg, ip administered 45 mins prior testing measured after 60 mins; assay type: organism-based; conditions: in vivo, 1 h
Mus musculus [6] = assay: Antipsychotic activity in mouse assessed as inhibition of PCP-induced hyperactivity at 1 mg/kg, ip administered 45 mins prior testing measured after 60 mins; assay type: functional, organism-based
Mus musculus [7] = assay: Toxicity in mouse assessed as induction of sedation at 1 mg/kg, ip administered 45 mins prior testing measured after 60 mins; assay type: organism-based; conditions: in vivo, 1 h
[8] = Metabolic stability in human liver microsomes assessed as compound loss at 2 uM measured after 30 mins in presence of NADPH by LC-MS/MS analysis; assay type: ADME; conditions: read-out: Drug degradation
Mus musculus [9] = assay: Antipsychotic activity in ig dosed mouse assessed as inhibition of PCP-induced hyperactivity; assay type: functional; conditions: for ED50: po
[10] = biological target: T2, Alpha-1A adrenergic receptor (Homo sapiens, UniProt P35348); assay: Antagonistic activity at alpha-1A adrenergic receptor (unknown origin) after 10 mins by FLIPR assay
T2 sequence (P35348 whole entry): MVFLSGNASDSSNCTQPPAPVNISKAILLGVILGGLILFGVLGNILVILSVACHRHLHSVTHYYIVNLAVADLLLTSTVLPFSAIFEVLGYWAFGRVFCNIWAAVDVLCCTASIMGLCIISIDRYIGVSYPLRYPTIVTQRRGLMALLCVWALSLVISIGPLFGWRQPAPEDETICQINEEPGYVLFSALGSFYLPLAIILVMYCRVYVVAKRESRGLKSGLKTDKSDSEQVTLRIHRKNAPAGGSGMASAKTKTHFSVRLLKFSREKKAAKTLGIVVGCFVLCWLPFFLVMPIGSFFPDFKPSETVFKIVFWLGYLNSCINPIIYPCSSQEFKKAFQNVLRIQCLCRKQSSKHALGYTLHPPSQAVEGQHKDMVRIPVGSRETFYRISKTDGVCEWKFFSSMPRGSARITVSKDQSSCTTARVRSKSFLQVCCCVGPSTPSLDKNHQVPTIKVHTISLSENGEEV

Histamine H1 receptor = Histamine H1 receptor (Homo sapiens, UniProt P35367); assay: Antagonistic activity at histamine1 receptor (unknown origin) after 10 mins by FLIPR assay
[11] = biological target: T3, 5-hydroxytryptamine receptor 2C (Homo sapiens, UniProt P28335); assay: Antagonistic activity at 5-HT2c receptor (unknown origin) after 10 mins by FLIPR assay
T3 sequence (P28335 whole entry): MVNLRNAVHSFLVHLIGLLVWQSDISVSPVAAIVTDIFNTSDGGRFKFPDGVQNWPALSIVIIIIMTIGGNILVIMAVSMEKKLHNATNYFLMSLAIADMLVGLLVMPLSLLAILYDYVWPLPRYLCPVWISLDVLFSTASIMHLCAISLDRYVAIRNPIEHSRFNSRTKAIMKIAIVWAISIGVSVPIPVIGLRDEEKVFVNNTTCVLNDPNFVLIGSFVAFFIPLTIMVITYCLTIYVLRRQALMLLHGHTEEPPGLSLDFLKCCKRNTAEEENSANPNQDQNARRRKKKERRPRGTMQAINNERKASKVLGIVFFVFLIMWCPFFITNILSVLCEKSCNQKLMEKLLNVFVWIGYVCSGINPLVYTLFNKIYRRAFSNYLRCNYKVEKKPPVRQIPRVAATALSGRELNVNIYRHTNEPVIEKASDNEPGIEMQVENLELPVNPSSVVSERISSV

[12] = biological target: Voltage-gated inwardly rectifying potassium channel KCNH2 (Homo sapiens, UniProt Q12809)
Description: Inhibition of human ERG after 10 mins

in vivo = conditions: mouse, po
Description: Therapeutic index, ratio of ED50 for toxicity in orally dosed mouse by catalepsy test to ED50 for antipsychotic activity in mouse

Chain of D(2) dopamine receptor (P14416 whole entry): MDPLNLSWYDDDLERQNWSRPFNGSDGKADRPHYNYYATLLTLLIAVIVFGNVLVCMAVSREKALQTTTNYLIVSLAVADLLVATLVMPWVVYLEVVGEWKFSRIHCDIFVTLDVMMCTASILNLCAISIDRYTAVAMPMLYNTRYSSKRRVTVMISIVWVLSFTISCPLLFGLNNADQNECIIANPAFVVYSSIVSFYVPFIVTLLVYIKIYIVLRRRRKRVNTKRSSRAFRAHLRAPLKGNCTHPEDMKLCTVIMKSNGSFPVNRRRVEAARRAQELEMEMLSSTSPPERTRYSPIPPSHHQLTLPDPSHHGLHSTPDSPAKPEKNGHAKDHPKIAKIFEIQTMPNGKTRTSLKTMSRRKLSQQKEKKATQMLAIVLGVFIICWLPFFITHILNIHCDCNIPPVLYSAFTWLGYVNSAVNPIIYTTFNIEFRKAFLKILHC
Chain of 5-hydroxytryptamine receptor 2A (P28223 whole entry): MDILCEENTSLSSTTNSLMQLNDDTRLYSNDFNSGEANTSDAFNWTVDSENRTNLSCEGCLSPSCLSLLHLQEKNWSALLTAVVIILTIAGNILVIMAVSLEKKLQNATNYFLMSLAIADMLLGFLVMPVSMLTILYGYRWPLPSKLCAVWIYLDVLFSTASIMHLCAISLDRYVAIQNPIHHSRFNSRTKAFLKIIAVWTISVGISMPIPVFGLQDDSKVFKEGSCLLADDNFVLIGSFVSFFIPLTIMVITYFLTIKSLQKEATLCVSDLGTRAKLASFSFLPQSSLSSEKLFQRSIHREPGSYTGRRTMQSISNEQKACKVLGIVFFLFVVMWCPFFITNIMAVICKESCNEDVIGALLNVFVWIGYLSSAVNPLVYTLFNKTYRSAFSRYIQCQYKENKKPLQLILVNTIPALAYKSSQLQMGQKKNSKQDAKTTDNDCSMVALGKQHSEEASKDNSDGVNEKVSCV
Chain of Histamine H1 receptor (P35367 whole entry): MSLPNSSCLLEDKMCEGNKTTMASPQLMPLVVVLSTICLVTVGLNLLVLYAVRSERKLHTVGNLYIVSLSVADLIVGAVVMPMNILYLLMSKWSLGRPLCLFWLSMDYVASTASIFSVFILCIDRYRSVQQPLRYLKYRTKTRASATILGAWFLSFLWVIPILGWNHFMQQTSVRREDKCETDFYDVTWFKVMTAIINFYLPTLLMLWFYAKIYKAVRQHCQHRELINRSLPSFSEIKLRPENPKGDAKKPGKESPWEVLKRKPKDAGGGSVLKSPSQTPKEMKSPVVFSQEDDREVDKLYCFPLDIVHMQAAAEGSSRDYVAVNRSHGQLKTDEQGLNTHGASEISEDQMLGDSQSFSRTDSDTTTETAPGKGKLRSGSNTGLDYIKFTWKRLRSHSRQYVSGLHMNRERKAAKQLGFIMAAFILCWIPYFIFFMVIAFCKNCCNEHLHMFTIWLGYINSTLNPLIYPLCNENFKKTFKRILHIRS
Chain of Voltage-gated inwardly rectifying potassium channel KCNH2 (Q12809 whole entry): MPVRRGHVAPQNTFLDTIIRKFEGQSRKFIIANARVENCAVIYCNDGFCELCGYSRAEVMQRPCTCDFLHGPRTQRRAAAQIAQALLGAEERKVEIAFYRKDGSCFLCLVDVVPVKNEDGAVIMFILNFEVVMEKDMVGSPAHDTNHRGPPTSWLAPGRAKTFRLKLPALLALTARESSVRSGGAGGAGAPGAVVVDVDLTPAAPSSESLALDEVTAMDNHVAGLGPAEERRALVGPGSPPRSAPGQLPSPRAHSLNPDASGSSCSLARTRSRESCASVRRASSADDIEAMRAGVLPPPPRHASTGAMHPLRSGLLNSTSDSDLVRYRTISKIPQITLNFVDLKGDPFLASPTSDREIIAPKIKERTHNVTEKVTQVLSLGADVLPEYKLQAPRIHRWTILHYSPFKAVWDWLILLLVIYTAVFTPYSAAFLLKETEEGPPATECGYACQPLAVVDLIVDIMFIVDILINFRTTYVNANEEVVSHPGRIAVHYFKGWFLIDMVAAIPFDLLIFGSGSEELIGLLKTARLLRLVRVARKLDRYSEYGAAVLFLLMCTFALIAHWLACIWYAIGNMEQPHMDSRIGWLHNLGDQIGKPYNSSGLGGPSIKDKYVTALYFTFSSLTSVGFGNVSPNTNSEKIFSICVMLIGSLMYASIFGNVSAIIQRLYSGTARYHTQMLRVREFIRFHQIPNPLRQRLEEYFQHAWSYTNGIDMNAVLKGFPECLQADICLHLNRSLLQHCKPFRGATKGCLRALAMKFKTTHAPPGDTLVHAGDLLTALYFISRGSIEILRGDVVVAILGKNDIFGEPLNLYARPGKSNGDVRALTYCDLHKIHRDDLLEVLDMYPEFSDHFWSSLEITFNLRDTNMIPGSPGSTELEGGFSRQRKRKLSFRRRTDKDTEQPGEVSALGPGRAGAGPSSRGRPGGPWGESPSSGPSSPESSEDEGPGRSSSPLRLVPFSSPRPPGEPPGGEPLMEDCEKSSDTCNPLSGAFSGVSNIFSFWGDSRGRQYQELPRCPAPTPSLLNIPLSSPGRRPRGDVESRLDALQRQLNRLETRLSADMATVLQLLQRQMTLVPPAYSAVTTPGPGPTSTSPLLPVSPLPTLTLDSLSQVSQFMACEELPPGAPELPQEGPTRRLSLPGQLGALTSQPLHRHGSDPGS

| SMILES | IC50 (D(2) dopamine receptor) | EC50 [1] | IC50 [2] | other results |
| --- | --- | --- | --- | --- |
| CNC(=O)c1cccc(OCCCCN2CCN(c3cccc4c3OC(F)(F)O4)CC2)c1 | 4.1 nM | 12 nM | > 10000 nM |  |
| CNC(=O)c1cccc(OCCCCN2CCN(c3cccc4sccc34)CC2)c1 | 91 nM | 5.1 nM | 216 nM |  |
| CCCCCNC(=O)c1cccc(OCCCCN2CCN(c3cccc(Cl)c3Cl)CC2)c1 | 16.8 nM | 464 nM | 1100 nM |  |
| CNC(=O)c1cc(C)cc(OCCCCN2CCN(c3cccc(Cl)c3Cl)CC2)c1 | 89.8 nM | 97.2 nM | 1400 nM |  |
| CNC(=O)c1cc(OCCCCN2CCN(c3cccc(Cl)c3Cl)CC2)cc(C(C)=O)c1 | 37.7 nM | 137 nM | 494 nM |  |
| Cc1nc2n(c(=O)c1CCN1CCC(c3noc4cc(F)ccc34)CC1)CCCC2 [RISPERIDONE] |  |  |  | ED50 (Mus musculus [3]): 0.3 mg/kg |
| CNC(=O)c1cccc(OCCCCN2CCC(c3noc4cc(F)ccc34)CC2)c1 | 8.5 nM | 13 nM | 46 nM | inhibition (Mus musculus [4]): Active; Activity (Mus musculus [5]): Toxic; inhibition (Mus musculus [6]): Active; Activity (Mus musculus [7]): Non-toxic; metabolised at 0.5 h, 2 µM [8]: 3%; inhibition (Mus musculus [9]): Dose-dependent effect; ED50 (Mus musculus [9]): 0.06 mg/kg; ED50 (Mus musculus [3]): 6.76 mg/kg; IC50 [10]: 35 nM; IC50 (Histamine H1 receptor): 2560 nM; IC50 [11]: 190 nM; IC50 [12]: 1030 nM; selectivity ratio (in vivo): 113 |
| CNC(=O)c1cc(OCCCCN2CCN(c3cccc4c3OC(F)(F)O4)CC2)ccc1F | 30 nM | 8.2 nM | 1900 nM |  |
| CNC(=O)c1cc(OCCCCN2CCN(c3nsc4ccccc34)CC2)ccc1F | 12 nM | 2.7 nM | 35 nM | inhibition (Mus musculus [4]): inactive; metabolised at 0.5 h, 2 µM [8]: 47% |
| CNC(=O)c1cc(OCCCCN2CCN(c3cccc4sccc34)CC2)ccc1F | 43 nM | 6 nM | 80 nM | inhibition (Mus musculus [4]): inactive; metabolised at 0.5 h, 2 µM [8]: 51% |
| CNC(=O)c1cc(OCCCCN2CCC(c3noc4cc(F)ccc34)CC2)ccc1F | 23 nM | 13 nM | 15 nM | inhibition (Mus musculus [4]): Active; Activity (Mus musculus [5]): Toxic; inhibition (Mus musculus [6]): Active; Activity (Mus musculus [7]): Non-toxic; metabolised at 0.5 h, 2 µM [8]: 14%; inhibition (Mus musculus [9]): Dose-dependent effect; ED50 (Mus musculus [9]): 0.11 mg/kg; ED50 (Mus musculus [3]): 7.04 mg/kg; IC50 [10]: 120 nM; IC50 (Histamine H1 receptor): 972 nM; IC50 [11]: 270 nM |
| CNC(=O)c1cccc(OCCCCN2CCN(c3nsc4ccccc34)CC2)c1 | 10 nM | 4.3 nM | 180 nM |  |

More lines, main results first:

| IC50 (D(2) dopamine receptor) | EC50 [1] | IC50 [2] | SMILES | other results |
| --- | --- | --- | --- | --- |
| 70 nM | 122 nM | 820 nM | CNC(=O)c1ccc(OCCCCN2CCN(c3cccc(Cl)c3Cl)CC2)cc1 |  |
| 167 nM | 309 nM | 2200 nM | CNC(=O)c1ccccc1OCCCCN1CCN(c2cccc(Cl)c2Cl)CC1 |  |
| 171 nM | 301 nM | 30.3 nM | CNC(=O)c1cccc(OCCCCN2CCN(c3cccc(Cl)c3Cl)CC2)c1F |  |
| 98.4 nM | > 100 nM | 1050 nM | CC(=O)Nc1cccc(OCCCCN2CCN(c3cccc(Cl)c3Cl)CC2)c1 |  |
| 34.9 nM | 34.4 nM | 340 nM | CNC(=O)c1cc(OCCCCN2CCN(c3cccc(Cl)c3Cl)CC2)ccc1Cl |  |
| 32 nM | 24 nM | 1100 nM | CNC(=O)c1cccc(OCCCCN2CCN(c3cccc(Cl)c3Cl)CC2)c1 |  |
| 116 nM | 101 nM | 670 nM | CCNC(=O)c1cccc(OCCCCN2CCN(c3cccc(Cl)c3Cl)CC2)c1 |  |
| 58.5 nM | > 10000 nM | 1380 nM | CNC(=O)c1ccc(Cl)c(OCCCCN2CCN(c3cccc(Cl)c3Cl)CC2)c1 |  |
| 39.4 nM | 7.2 nM | 360 nM | CNC(=O)c1cc(OCCCCN2CCN(c3cccc(Cl)c3Cl)CC2)ccc1F |  |
|  | 26 nM | 1100 nM | NC(=O)c1cccc(OCCCCN2CCN(c3cccc(Cl)c3Cl)CC2)c1 |  |
| 12 nM | 26 nM | 840 nM | CNC(=O)c1ccc(OC)c(OCCCCN2CCN(c3cccc(Cl)c3Cl)CC2)c1 |  |
| 202 nM | 120 nM | 720 nM | CNC(=O)c1cccc(OCCCCN2CCN(c3cccc(Cl)c3Cl)CC2)c1OC |  |
| 3600 nM | 122 nM | 860 nM | CNC(=O)c1cccc(OCCCCN2CCN(c3cccc(Cl)c3Cl)CC2)c1C |  |
| 1580 nM | 361 nM | 1320 nM | CNC(=O)c1cc(F)cc(OCCCCN2CCN(c3cccc(Cl)c3Cl)CC2)c1 |  |
| 9.8 nM | 74 nM | 460 nM | CNC(=O)c1cc(OCCCCN2CCN(c3cccc(Cl)c3Cl)CC2)ccc1C |  |
